Legend:
[1] = Selectivity index, ratio of IC50 for rat L6 cells to IC50 for Trypanosoma cruzi Tulahuen C4; format: functional, cell-based
[2] = tested on: Trypanosoma brucei rhodesiense; experiment: Antitrypanosomal activity against Trypanosoma brucei rhodesiense STIB900 trypomastigotes by microplate assay; format: functional, organism-based
[3] = tested on: Leishmania donovani; experiment: Antileishmanial activity against Leishmania donovani MHOM-ET-67/L82 amastigotes by microplate assay; format: functional, organism-based
[4] = Selectivity index, ratio of IC50 for rat L6 cells to IC50 for Trypanosoma brucei rhodesiense STIB900; format: functional, cell-based
[5] = Selectivity index, ratio of IC50 for rat L6 cells to IC50 for Leishmania donovani MHOM-ET-67/L82; format: functional, cell-based
[6] = tested on: Trypanosoma cruzi; experiment: Antitrypanosomal activity against Trypanosoma cruzi Tulahuen C4 amastigotes by microplate assay; format: functional, organism-based
[7] = tested on: L6; experiment: Cytotoxicity against rat L6 cells; format: cell-based

Row | IC50 [2] [nM] | IC50 [3] [nM] | IC50 [6] [nM] | Compound | selectivity index [1] | selectivity index [4] | selectivity index [5] | IC50 [7] [nM]
1 | 80 | 350 | 2870 | O=C1C=C(Oc2ccc(F)cc2Br)C(=O)c2cc3ccccc3cc21 | 0.39 | 14.1 | 3.24 | 1130
2 | 65 | 490 | 13700 | O=C1C=C(Oc2ccc(Cl)cc2Cl)C(=O)c2cc3ccccc3cc21 | 0.15 | 31 | 4.15 | 2010
3 | 370 | 700 | 4430 | O=C1C=C(Oc2ccc(Cl)cc2F)C(=O)c2ccccc21 | 1.03 | 12.5 | 6.54 | 4580
4 | 140 | 470 | 16400 | O=C1C=C(Oc2ccc(Br)cc2Br)C(=O)c2cc3ccccc3cc21 | 0.13 | 15.4 | 4.71 | 2190
5 | 390 | 2290 | 5000 | O=C1C=C(Oc2ccc(F)cc2F)C(=O)c2ccccc21 | 1.1 | 14.2 | 2.41 | 5510
6 | 300 | 920 | 2880 | Cc1ccc(OC2=CC(=O)c3ccccc3C2=O)cc1Br | 1.71 | 16.4 | 5.34 | 4920
7 | 80 | 1260 | 1260 | O=C1C=C(Oc2ccccc2)C(=O)c2ccccc21 | 4.7 | 74 | 4.69 | 5920
8 | 240 | 280 | 7140 | O=C1C=C(Oc2ccc(F)cc2F)C(=O)c2cc3ccccc3cc21 | 0.28 | 8.43 | 7.01 | 1980
9 | – | 310 | – | CCCCCCCCCCCCCCCCOP(=O)([O-])OCC[N+](C)(C)C [MILTEFOSINE] | – | – | – | –
10 | 210 | 530 | 21500 | O=C1C=C(Oc2ccc(Cl)cc2F)C(=O)c2cc3ccccc3cc21 | 0.12 | 12.4 | 5.01 | 2640
11 | 150 | 360 | 6360 | Cc1ccc(OC2=CC(=O)c3cc4ccccc4cc3C2=O)cc1Br | 0.4 | 17.4 | 7.1 | 2560
12 | 50 | 340 | 4660 | O=C1C=C(Oc2ccccc2)C(=O)c2cc3ccccc3cc21 | 0.21 | 20 | 2.94 | 1000
13 | 510 | 2370 | 34300 | O=C1C=C(Oc2ccc(Br)cc2Br)C(=O)c2ccccc21 | 0.83 | 55.7 | 12.1 | 28500
14 | 220 | 510 | 2470 | Cc1ccc(OC2=CC(=O)c3ccccc3C2=O)c(C)c1 | 2.13 | 24.4 | 10.3 | 5260
15 | 310 | 550 | 22500 | Cc1ccc(OC2=CC(=O)c3cc4ccccc4cc3C2=O)c(C)c1 | 0.18 | 13.2 | 7.53 | 4130
16 | 290 | 1320 | 5950 | O=C1C=C(Oc2ccc(Cl)cc2Cl)C(=O)c2ccccc21 | 0.87 | 17.8 | 3.94 | 5180
17 | 360 | 1810 | 3740 | O=C1C=C(Oc2ccc(F)cc2Br)C(=O)c2ccccc21 | 1.25 | 13.1 | 2.58 | 4660

Source: ChEMBL document CHEMBL1141548, “Synthesis of a small library of 2-phenoxy-1,4-naphthoquinone and 2-phenoxy-1,4-anthraquinone derivatives bearing anti-trypanosomal and anti-leishmanial activity” (Bioorg Med Chem Lett, 2008)
